The test system of assay [1] is methicillin-resistant Staphylococcus aureus (MRSA). Put plainly: Growth inhibition assay, minimum inhibitory concentration against MRSA. In kind it is cell-based. The note with it: for MIC: Staphylococcus aureus. The protocol: (§1) Growth Inhibition Assays. Compounds were prepared in DMSO to a concentration of 10 mM. DMSO was used as a vehicle negative control, and vancomycin (MRSA) and ampicillin (VRE) were also prepared as positive controls for minimum inhibitory concentration (MIC) tests. Compounds were tested for antimicrobial activity against MRSA and VRE at 100, 50, 25, 12.5, 6.25, 3.13, 1.56, 0.78, and 0.39 μM. MRSA was grown in tryptic soy broth and VRE was grown in brain heart infusion medium. Overnight cultures of bacteria were diluted to OD600=0.1 and 50 μL of cell culture broth was added to each well. Media (50 μL) containing compound at the appropriate concentration was then added to the cell cultures and the plates were sealed and incubated at 37° C. overnight. Plates were then read for OD600 using a PerkinElmer Envision 2100 multimode plate reader (PerkinElmer, Waltham, MA, USA). […] All samples were tested in triplicate.
(§2) Determination of Minimum Inhibitory Concentration. All compounds were freshly dissolved in DMSO at a stock solution of 10 mM. DMSO (solvent vehicle) was used as a negative control and vancomycin and ampicillin were used as positive controls for MRSA and VRE, respectively. Compounds were dispensed into 96-well plates at 100, 50, 25, 12.5, 6.25, 3.13, 1.56, 0.78, and 0.39 μM. Overnight cultures of MRSA grown in tryptic soy broth and VRE grown in brain heart infusion medium were diluted to OD600 of 0.1, and 50 μL of fresh cell culture broth was added to each well. The plates were sealed and incubated at 37° C. overnight. Plates were then monitored for OD600 using a PerkinElmer Envision 2100 multimode plate reader (PerkinElmer, Waltham, MA, USA).

In assay [2] the test system is vancomycin-resistant Enterococcus faecalis (VRE). Put plainly: Growth inhibition assay, minimum inhibitory concentration against VRE. The class given is cell-based. On the procedure: as §1, §2
Assay [3] concerns UDP-MurNAc-pentapeptide in MRSA. Briefly: Accumulation of cell wall precursor UDP-MurNAc-pentapeptide in MRSA. The class given is cell-based, Staphylococcus aureus. The note with it: compared to DMSO. From the text: (§3) FIGS. 21A-21D show (FIG. 21A) SYTOX Green fluorescence assay for antibiotic-induced bacterial membrane permeability. Vancomycin was used as a negative control, and daptomycin was used as a positive control. Error bars represent the standard error of the mean across 3 biological replicates. […] Vancomycin was used as a positive control. […] Error bars represent the standard deviation of three biological replicates. […] Data from three biological replicates are shown. […] Vancomycin was used as a positive control. […] Error bars represent the standard deviation of three biological replicates.
(§4) The effects of compounds of Formula I on the bacterial cell wall were thus investigated. […] The effects of compounds of Formula I on cell wall biosynthesis was investigated by looking for accumulation of the cell wall precursor molecule UDP-MurNAc-pentapeptide (FIG. 21B).

The next assay deals with lipid II in MRSA. Briefly: Accumulation of lipid II in MRSA, LC-MS of de-lipidated lipid II. In kind it is cell-based, Staphylococcus aureus. The note with it: compared to DMSO. From the text:
(§5) FIGS. 21A-21D show (FIG. 21A) SYTOX Green fluorescence assay for antibiotic-induced bacterial membrane permeability. Vancomycin was used as a negative control, and daptomycin was used as a positive control. Error bars represent the standard error of the mean across 3 biological replicates. […] Vancomycin was used as a positive control. The UDP-MurNAc-pentapeptide was identified by mass spectrometry, with an [M+H]^+ of 1150.3590. Error bars represent the standard deviation of three biological replicates. […] Lipid II cannot rescue bacteria grown in the presence of ciprofloxacin (an inhibitor of DNA replication). Data from three biological replicates are shown. […] Vancomycin was used as a positive control. Lipid II was boiled to remove the lipid tail, and de-lipidated lipid II was quantified by mass spectrometry, with an [M+H]^+ of 1331.5362. Error bars represent the standard deviation of three biological replicates.
Lipid II is a crucial peptidoglycan building block downstream of UDP-MurNAc-pentapeptide and is the target of several antibiotics, including vancomycin. Bacteria were grown in the presence of lethal concentrations of antibiotics with and without supplementation of lipid II into the media. […] These lipids are the targets of numerous antibiotics. […] The lipid tail of lipid II can be removed by boiling in acidic conditions, allowing quantification by LC-MS. […]

Assay [4] has as its system MRSA. Briefly: Lipid II supplementation rescue of MRSA growth. The class given is cell-based, Staphylococcus aureus. Particulars: lethal concentrations of antibiotic, with lipid II in the media.
Text: as §5
Lipid II is a crucial peptidoglycan building block downstream of UDP-MurNAc-pentapeptide and is the target of several antibiotics, including vancomycin. Bacteria were grown in the presence of lethal concentrations of antibiotics with and without supplementation of lipid II into the media. […] These lipids are the targets of numerous antibiotics. Compounds that bind to lipid II are known to result in its accumulation in cells, while compounds that bind to C55-P or C55-PP result in a reduction in lipid II levels. […] The lipid tail of lipid II can be removed by boiling in acidic conditions, allowing quantification by LC-MS. Following this protocol, an accumulation of a mass matching de-lipidated lipid II when bacteria were treated with either compounds of Formula I or vancomycin (FIG. 21D) was observed. The identity of this molecule was confirmed by tandem mass spectrometry and compared to published fragmentation data. Without being bound by theory, it is believed that compounds of Formula I target the bacterial cell wall by binding to lipid II and preventing its polymerization and cross-linking into peptidoglycan.

Assay [5] concerns MRSA. The note with it: after 30 days, identical conditions.
Text: Fold change in MIC for one culture grown in the presence of sub-inhibitory levels of ciprofloxacin for 30 days is shown as a positive control.
An attempt to culture MRSA mutants resistant to compounds of Formula I was made by subculturing two independent cultures of bacteria continuously in the presence of non-lethal concentrations of 5.
Assay [6] has as its system MRSA. Briefly: SYTOX Green fluorescence assay for bacterial membrane permeability. In kind it is cell-based, Staphylococcus aureus.
Text: as §3, §4

Where [7] appears, read: Table 6, read-out: Minimal inhibitory concentrations, S. aureus (methicillin resistant).
[8] abbreviates: Enterococcus faecalis, Table 6, read-out: Minimal inhibitory concentrations, E. faecalis (vancomycin resistant).

Values after ≈ are worked out from the molar mass of the structure shown. Read-outs that look alike come from different tables or passages of the source. Where only a bound is given, the exact number is not on record here.

Regarding `Oc1cc(O)cc(/C=C/c2ccccc2)c1` [compound 6, pinosylvin, reference compound], the MIC in assay [1] (setting [7]) and in assay [2] (setting [8]) was more than 100 µM each time.

As for `CC(C)C1=C(O)C(=O)C(/C=C/c2ccccc2)=C(c2c(/C=C/c3ccccc3)cc(O)c(C(C)C)c2O)C1=O` [compound 5, duotap-520], the “level of UDP-MurNAc-pentapeptide” value in assay [3] is reported as “Accumulation”. Besides, the “accumulation of lipid II (de-lipidated lipid II)” value with lipid II in MRSA was “Accumulation”. Moreover, the “restoration of MRSA growth by lipid II supplementation” value (from here on “restoration of MRSA growth”) in the assay on MRSA [4] is “restore growth”.

On to `O=C(O)c1cn(C2CC2)c2cc(N3CCNCC3)c(F)cc2c1=O` [ciprofloxacin], for which the “increase in MIC” value in the assay on MRSA [5] is recorded as “approximately 37 fold”. Further, the “restoration of MRSA growth” value in the assay with MRSA [4] was “not able to rescue bacterial growth”.

Consider `O=C1C=C(O)C(=O)C(/C=C/c2ccc(O)cc2)=C1c1c(O)cc(O)cc1/C=C/c1ccc(O)cc1` [compound 9, duotap-468], for which, in assay [1], the “antibiotic activity against MRSA (in words)” value is listed as “no enhancement of activity”. Moreover, the MIC in assay [1] (setting [7]) and in assay [2] (setting [8]) was more than 100 µM in each case. Besides, in assay [2], the “antibiotic activity against VRE (in words)” value is “no enhancement of activity”.

As for `CN[C@H](CC(C)C)C(=O)N[C@H]1C(=O)N[C@@H](CC(N)=O)C(=O)N[C@H]2C(=O)N[C@H]3C(=O)N[C@H](C(=O)N[C@H](C(=O)O)c4cc(O)cc(O)c4-c4cc3ccc4O)[C@H](O)c3ccc(c(Cl)c3)Oc3cc2cc(c3O[C@@H]2O[C@H](CO)[C@@H](O)[C@H](O)[C@H]2O[C@H]2C[C@](C)(N)[C@H](O)[C@H](C)O2)Oc2ccc(cc2Cl)[C@H]1O` [vancomycin, reference compound], the “level of UDP-MurNAc-pentapeptide” value in assay [3] is “significant increase”. For the same compound, the “accumulation of lipid II (de-lipidated lipid II)” value in the assay on lipid II in MRSA was “accumulation”. Also, the “restoration of MRSA growth” value with MRSA [4] was “restored MRSA growth to antibiotic-free levels”.

Turning to `CCCCCCCCCC(=O)N[C@@H](Cc1c[nH]c2ccccc12)C(=O)N[C@H](CC(N)=O)C(=O)N[C@@H](CC(=O)O)C(=O)N[C@@H]1C(=O)NCC(=O)N[C@@H](CCCN)C(=O)N[C@@H](CC(=O)O)C(=O)N[C@H](C)C(=O)N[C@@H](CC(=O)O)C(=O)NCC(=O)N[C@H](CO)C(=O)N[C@@H]([C@H](C)CC(=O)O)C(=O)N[C@@H](CC(=O)c2ccccc2N)C(=O)O[C@@H]1C` [daptomycin], the membrane permeability result with MRSA [6] is on record as “increase in membrane permeability”.

Consider `O=C1C=C(O)C(=O)C(/C=C/c2ccccc2)=C1c1c(O)cc(O)cc1/C=C/c1ccccc1` [compound 8, duotap-436], for which the “antibiotic activity against MRSA (in words)” value in assay [1] is recorded as “significantly enhanced antibiotic activity compared to 6”. For the same compound, the MIC in assay [1] (setting [7]) was found to be 4 µM (≈ 1.75 µg/mL). Besides, in assay [2], the “activity against VRE” value came out at 6 µg/mL and the “antibiotic activity against VRE (in words)” value is given as “significantly enhanced antibiotic activity compared to 6”. In assay [2] (setting [8]), the MIC was found to be 6 µM (≈ 2.62 µg/mL).

For the compound “lumiquinone A [compound 3, reference compound]”, in assay [1], the “antibiotic activity against MRSA (in words)” value is listed as “little to no activity”. The “antibiotic activity against VRE (in words)” value in assay [2] is recorded as “little to no activity”.

Regarding `Oc1ccc(C=Cc2cc(O)cc(O)c2)cc1` [compound 7, resveratrol, reference compound], the results for the MIC in assay [1] (setting [7]) and in assay [2] (setting [8]) were 25 µM (≈ 5.71 µg/mL) and 14 µM (≈ 3.2 µg/mL), respectively.

Take `CC(C)c1c(O)cc(C2OC2c2ccccc2)cc1O` (stereo not drawn) [compound 2, stilbene epoxide, reference compound]: the “antibiotic activity against MRSA (in words)” value in assay [1] was “little to no activity”. In assay [2], the “antibiotic activity against VRE (in words)” value is listed as “little to no activity”.

Regarding `CC(C)c1c(O)cc(/C=C/c2ccccc2)cc1O` [compound 1, tapinarof, reference compound], the MIC in assay [1] (setting [7]) came out at 27 µM (≈ 6.87 µg/mL); in assay [1] (read-out: MIC), 27 µM (≈ 6.87 µg/mL); in assay [2] (setting [8]), 51 µM (≈ 13 µg/mL); in assay [2] (read-out: MIC), 50.5 µM (≈ 12.8 µg/mL).
